Experimental data reported in US20250353835A1, “N-TETRAZOLYL ARYL UREA-BASED DERIVATIVES, PREPARATION METHOD THEREFOR, AND USE THEREOF” (Hangzhou Yirui Pharmaceutical Technology Co., Ltd, priority 2022, published 2025).
Where two headings read alike, the source gives them in different places.

Assays:
[1] = test system: mouse model of ragweed pollen-induced allergic conjunctivitis; assay: Mouse model of ragweed pollen-induced allergic conjunctivitis; assay type: in vivo, Balb/c mice; conditions: for Clinical symptom score: twice a day for 14 days, Day 14 within 30 minutes after final challenge
Method: SPF-grade Balb/c mice (half male and half female, 6-8 weeks old) were used as experimental animals. On Day 0 and Day 6, ragweed pollen footpad injection was injected subcutaneously into the footpads of mice for sensitization (65 μl per mouse). On Days 10-14, in the model group, eye drop of ragweed pollen was applied to both eyes of the mice (10 μl per mouse) once a day. The eye drops were applied for 5 consecutive days to trigger local allergic conjunctivitis (Wu B, et al., Frontiers in Immunology, 2021, 12:4754). […] On Day 14, within 30 minutes after the final challenge, the ocular clinical symptoms of the mice were observed under a microscope and scored according to the scoring criteria reported by Magone et al. (MerayoLloves J, et al., J Allergy Clin Immunol (1996) 97(5):1129-40; Magone M T, et al., Clin Immunol Immunopathol (1998) 87(1):75-84), the allergic response of the eyes were observed, including 4 indexes: conjunctival edema, conjunctival congestion, eyelid congestion and edema, and tearing. The scores were recorded as 0-3 points according to the severity (including none, mild, moderate and severe). The left eye of the mouse was taken with the eyelid (keeping the conjunctiva intact), fixed with polyformaldehyde, sectioned in paraffin, Hematoxylin-Eosin stained (HE stained), and toluidine blue stained (for detection of mast cells). Photographs were taken to analyze the inflammatory cell infiltration of the conjunctival tissue, and observe whether the mast cells in the conjunctiva aggregated and whether a phenomenon of degranulation occurred. The expression of allergic indicators IL-4 and IgE in the conjunctival tissue was detected by immunohistochemistry.
The mouse eye, including the eyelids (with intact conjunctiva), was sectioned after deparaffinization, and subjected to antigen retrieval and serum blocking.
Diluted IL-4 or IgE antibodies were added and incubated overnight. After incubation with secondary antibodies, DAB staining was performed, followed by counterstaining with hematoxylin. The slides were then mounted and observed under an […], with photographs taken. Semi-quantitative analysis was conducted using Image-J software. Based on the cumulative optical density and regional area values of each image, the average optical density was calculated to detect the positive expression of IL-4 or IgE.

[2] = Drug concentration in rat retinas after intraocular injection (HPLC); assay type: in vivo, Wistar rats; conditions: retina
Description: 1.1 Experimental aminals: SPF-grade male Wistar rats weighed 180-220 g.
1.2 Drugs and reagents: Compound 71; sodium chloride injection (Shandong Qidu Pharmaceutical Co., Ltd., Batch No.: 3B151014124); acetonitrile (chromatographically pure, TEDIA, USA); methanol (chromatographically pure, SIGMA-ALDRICH product); triethylamine (analytically pure, Hangzhou Gaojing Fine Chemical Co., Ltd.).
1.3 Experimental grouping and administration: according to the sampling time, 33 male Wistar rats were divided into 11 groups (three rats per group) of: (1) control group; (2) 0 h; (3) 2 h; (4) 6 h; (5) 24 h; (6) 48 h; (7) 72 h; (8) 5 d; (9) 7 d; (10) 10 d; (11) 14 d. Three rats in the control group were injected with solvent (sterile normal saline) intraocularly, and the remaining 30 rats were injected with Compound 71 intraocularly at a concentration of 0.5% by using a 5 μL microinjector, and 5 μL of drug was injected per bulbus oculi.
1.4 Sampling and detection index: The retina of the rat in the control group was taken on Day 14 (14 d), and the retina of the remaining 30 rats was taken at the corresponding time points. The retina were frozen in liquid nitrogen, and then subjected to the subsequent HPLC detection.
1.5.1 Chromatographic conditions: The mobile phase was chromatographic grade acetonitrile-water=25-75 (v/v). The flow rate was 0.5 mL/min. The column temperature was 25° C. The UV detection wavelength was 254 nm. The injection volume was 20 μL.
1.5.2 Sample processing and preparation: the sample of the rat retina was taken out from the ultra-low temperature (−80° C.) refrigerator, accurately weighed and placed in a glass homogenizer, and ethyl acetate as an organic solvent pre-cooled in a 4° C. refrigerator was added at a ratio of 100 mL/g. The homogenizer was placed in an ice bath for homogenization. After homogenization, all the homogenate was poured into a 5 mL stoppered centrifuge tube. The centrifugation was performed at a low temperature of 4° C. for 5 min (5000 r/min). All the organic phase as the upper layer was accurately taken out and placed in a glass tube with conical bottom. The remaining residue of retina was extracted with 2 mL ethyl acetate repeatedly once. After centrifugation, the two organic phases were combined. Then, the centrifuge tube with conical bottom was blowed for dryness in a nitrogen flow in a 45° C. water bath. The residue was redissolved with 0.1 mL of chromatographic methanol, vortex mixed for 1 min, and centrifuged for 5 min at a high speed of 18000 r/min. 20 μL of the supernatant was taken, and analyzed in a high-performance liquid chromatography system.
1.5.3 Sample determination: After intraocular injection of 5 μL of 0.5% Compound 71, the retina was taken at different time points to analyze the drug content of the test compound in the retina.
1.5.4 Experimental results and conclusions: According to the retinal drug concentration-time curve, it is in conformity to the non-absorption two-compartment model. According to the pharmacokinetic non-absorption two-compartment model theory, the pharmacokinetic parameters of the drug were calculated.

[3] = immunohistochemistry, 2% eye drop
[4] = intraocular injection of 5 μL of 0.5% per eye, two-compartment model

| Structure (SMILES) | inflammatory cell infiltration of conjunctival tissue (HE staining; in words) ([1]; 0.5% eye drop) | mast cell degranulation (toluidine blue staining; in words) ([1]; 0.5% eye drop) | Clinical symptom score ([1]; 0.5% eye drop) | inflammatory cell infiltration of conjunctival tissue (HE staining; in words) ([1]; 2% eye drop) | mast cell degranulation (toluidine blue staining; in words) ([1]; 2% eye drop) | Clinical symptom score ([1]; 2% eye drop) | expression of IgE in ocular tissue (average optical density) ([1]; immunohistochemistry, 0.5% eye drop) | expression of IL-4 in ocular tissue (average optical density) [1, 3] | expression of IgE in ocular tissue (average optical density) [1, 3] | concentration at 14 d ([2]; male, Wistar, rat, other: intraocular injection, 5 μL of 0.5% solution per eye, Day 14 after intraocular injection of 0.5% (5 μL per eye), read-out: retinal concentration) | half-life ([2]; male, Wistar, rat, topical or ocular, 5 μL of 0.5% solution per eye, intraocular injection of 5 μL of 0.5% per eye, two-compartment model, read-out: Distribution half-life (converted)) | half-life ([2]; male, Wistar, rat, topical or ocular, 5 μL of 0.5% solution per eye, intraocular injection of 5 μL of 0.5% per eye, two-compartment model, read-out: Elimination half-life (converted)) | AUC ([2]; male, Wistar, rat, topical or ocular, 5 μL of 0.5% solution per eye, intraocular injection of 5 μL of 0.5% per eye, two-compartment model, read-out: Area under the time curve AUC) | Apparent distribution volume [2, 4] | Total clearance CLT [2, 4] |
| --- | --- | --- | --- | --- | --- | --- | --- | --- | --- | --- | --- | --- | --- | --- | --- |
| CCOc1ccc(-c2c(F)cc(NC(=O)N3CCC(C(C)(C)C)CC3)cc2-c2nn[nH]n2)cn1 [Compound 8, 4-(tert-butyl)-N-(4-(6-ethoxypyrid-3-yl)-3-fluoro-5-(2H-tetrazol-5-yl)phenyl)piperidine-1-carboxamide] | inflammatory cell infiltration was still visible | a few samples showed manifest mast cell degranulation | 3.67 ± 0.36 | an improvement in inflammatory cell infiltration | no mast cell degranulation was observed | 1.75 ± 0.22^♦ | 0.72±0.12 | 0.24±0.06 | 0.54±0.06 | – | – | – | – | – | – |
| CCOc1ccc(-c2ccc(NC(=O)N[C@H]3CC[C@H](C)CC3)cc2-c2nn[nH]n2)cn1 [Compound 71, 1-(4-(6-ethoxypyrid-3-yl)-3-(2H-tetrazol-5-yl)phenyl)-3-((trans)-4-methylcyclohexyl)urea] | – | – | – | – | – | – | – | – | – | 1240 nM | 6.97 h | 408 h | 901 µg·h/mL | 0.001676 L | 5.55e-05 L/h |
